Key:
[1] = pH change of the media caused by amino acid addition; assay type: physicochemical; conditions: culture media, FIG. 6
[2] = tested on: PANC-1 and MIA PaCa-2 (malignant pancreas epithelial) cells; test: Cell viability / cytotoxicity (CCK-8) on PDAC tumor cells; assay type: cell-based, human; conditions: for cytotoxic efficacy on tumor cells / viability dose response of tumor cells: individual amino acid, 48 hours, FIGS. 7, 8
Procedure: (§1) Malignant pancreatic cell lines (PANC-1 and MIA PaCa-2) and nonmalignant human pancreas cell line (HPNE) were obtained from the American Type Culture Collection (Manassas, Virginia). The cells were cultured in DMEM medium (HYCLONE™ sera, available from GE Healthcare Life Sciences) with HPNE cells having 0.1 ng/ml EGF (Novus Biologicals, USA) included. All cultures were supplemented with 10% fetal bovine serum (FBS, Life Technology, Thermo Fisher Scientific Inc.), penicillin (1 U), and streptomycin (1 μg/ml). All cells were maintained in a humidified incubator with 5% CO2 at 37° C. All cell lines were cultured in triplicate under the same conditions, then harvested to collect independent exosome samples. Cells were seeded in 96-well plates at a density of 10^4 cells/well. After 24 hours, culture medium with increasing concentrations of treatment was added to the treatment group for 48 hours. Cell viability was accessed by Cell Counting Kit-8 (CCK-8; Dojindo Laboratories) following the manufacturer's instructions. Briefly, a mixture of 10 μl of CCK-8 and 190 μl media was added into each well and the cells were incubated for another 1 hour. The absorbance of each well was measured at 450 nm using a microplate reader. Each experiment was repeated six times.

[3] = tested on: PANC-1 subcutaneous pancreatic tumor; test: Subcutaneous PANC-1 xenograft in nude mice; assay type: in vivo; conditions: AA oral gavage daily, GEM intraperitoneal twice a week, n=5, FIG. 32
Procedure: In particular, the xenograft model was established with six to eight-week-old male nude mice (J:NU-Foxn1nu) purchased from The Jackson Laboratory (Bar Harbor, ME). […] The pancreatic cancer tumor was injected subcutaneously into the left flank of each mouse with 4×10^6 PANC-1 cells suspended in 100 μl of serum-free media with 50% […] ® matrix to establish a subcutaneous pancreatic tumor.
Mice were observed three times daily for the first seven days and tumor xenograft was confirmed by the presence of the tumor. […] Tumor volume and mice weight were measured every fifth day. Tumor volume was established by measuring length and width; the volume formula used was the modified ellipsoid volume formula (½ length×width 2).
For AA and control groups, treatment was given by oral gavage. AA treatment was made from a combination of histidine (44 mg/ml) and isoleucine (22 mg/ml) dissolved in PBS. For the two groups with AA, oral gavage treatment was administered daily with 200 μl AA treatment using a 20 ga polypropylene feeding tube attached to a syringe. For the control group, oral gavage treatment was administered using the same method except with 200 μl PBS. For the GEM and AA+GEM groups, GEM was given by intraperitoneal injection. GEM groups were injected twice a week with 200 μl of GEM (15 mg/ml) dissolved in PBS. All treatments were administered for sixty days. […]

[4] = tested on: hTert-HPNE (nonmalignant pancreas epithelial) cells; test: Cell viability / cytotoxicity (CCK-8) on nontumor cells; assay type: cell-based, human; conditions: individual amino acid, 48 hours, FIGS. 7, 8
Procedure: as §1

## N=C(N)NCCC[C@H](N)C(=O)O [arginine, reference compound]
[1]
  pH change caused by amino acid addition: significant pH change

## N[C@@H](CS)C(=O)O [cysteine, reference compound]
[1]
  pH change caused by amino acid addition: significant pH change

## Nc1ccn([C@@H]2O[C@H](CO)[C@@H](O)C2(F)F)c(=O)n1 [GEM, gemcitabine, reference compound]
[2]; AA compared with GEM, FIG. 13
  time-dependent cytotoxicity to tumor cells: faster efficacy and is more tumoricidal effective
[3]
  antitumor efficacy (tumor volume): showed antitumor efficacy

## CC[C@H](C)[C@H](N)C(=O)O [isoleucine]
[2]
  cytotoxic efficacy on tumor cells: selective cytotoxic efficacy
  viability dose response of tumor cells: monotonic dose response
[4]
  cell viability of nontumor cells: no significant difference in cell viability
[1]
  pH change caused by amino acid addition: trivial impact

## N[C@@H](Cc1c[nH]cn1)C(=O)O [histidine]
[2]
  cytotoxic efficacy on tumor cells: selective cytotoxic efficacy
  viability dose response of tumor cells: monotonic dose response
[4]
  cell viability of nontumor cells: no significant difference in cell viability
[1]
  pH change caused by amino acid addition: trivial impact

Source: patent publication US20250325520A1, “Methods for Targeting Cancer Cells Using Amino Acids” (University of Denver, priority 2024, published 2025)
